In ChEMBL document CHEMBL4052645, “Discovery of potent and efficacious pyrrolopyridazines as dual JAK1/3 inhibitors” (Bioorg Med Chem Lett, 2017):
pIC50: −log10 of the molar value.

Key:
[1] = target: Tyrosine-protein kinase JAK1 (Homo sapiens, UniProt P23458); assay: Inhibition of GST-tagged JAK1 (unknown origin) after 3 hrs by Caliper assay
[2] = target: Non-receptor tyrosine-protein kinase TYK2 (Homo sapiens, UniProt P29597); assay: Inhibition of His-tagged TYK2 (unknown origin) after 3 hrs by Caliper assay
[3] = target: T1, Tyrosine-protein kinase JAK3 (Homo sapiens, UniProt P52333); assay: Inhibition of JAK3 (unknown origin) using CSKtide as substrate after 30 mins in presence of [gamma33P]ATP by liquid scintillation counting method
T1 sequence (P52333 whole entry): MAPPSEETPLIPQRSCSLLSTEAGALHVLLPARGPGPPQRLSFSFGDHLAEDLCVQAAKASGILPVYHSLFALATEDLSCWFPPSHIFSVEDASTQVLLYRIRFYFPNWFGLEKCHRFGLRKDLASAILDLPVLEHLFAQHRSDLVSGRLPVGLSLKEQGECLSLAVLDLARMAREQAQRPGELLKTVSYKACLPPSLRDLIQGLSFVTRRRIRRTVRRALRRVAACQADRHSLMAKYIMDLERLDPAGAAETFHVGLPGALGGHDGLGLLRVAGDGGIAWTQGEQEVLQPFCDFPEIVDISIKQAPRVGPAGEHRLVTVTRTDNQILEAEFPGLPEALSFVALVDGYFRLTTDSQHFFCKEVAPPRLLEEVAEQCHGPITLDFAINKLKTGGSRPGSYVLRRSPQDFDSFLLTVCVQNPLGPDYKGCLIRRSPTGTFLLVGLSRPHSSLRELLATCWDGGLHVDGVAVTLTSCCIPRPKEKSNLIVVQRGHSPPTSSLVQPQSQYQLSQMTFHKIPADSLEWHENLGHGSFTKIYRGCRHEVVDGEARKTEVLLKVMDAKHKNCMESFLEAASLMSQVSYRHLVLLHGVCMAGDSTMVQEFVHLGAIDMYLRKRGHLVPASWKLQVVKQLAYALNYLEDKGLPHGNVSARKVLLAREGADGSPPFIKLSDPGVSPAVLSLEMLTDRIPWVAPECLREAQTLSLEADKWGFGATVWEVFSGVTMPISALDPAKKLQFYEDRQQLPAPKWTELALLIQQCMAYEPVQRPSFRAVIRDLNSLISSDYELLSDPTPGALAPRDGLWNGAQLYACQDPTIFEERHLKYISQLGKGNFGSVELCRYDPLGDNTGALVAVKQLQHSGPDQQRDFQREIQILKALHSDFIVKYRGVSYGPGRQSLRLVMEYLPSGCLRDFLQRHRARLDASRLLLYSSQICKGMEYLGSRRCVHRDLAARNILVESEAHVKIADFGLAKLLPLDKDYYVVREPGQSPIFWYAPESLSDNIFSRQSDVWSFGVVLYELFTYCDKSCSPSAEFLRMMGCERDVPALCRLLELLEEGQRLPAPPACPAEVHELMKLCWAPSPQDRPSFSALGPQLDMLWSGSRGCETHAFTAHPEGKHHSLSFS

[4] = target: Tyrosine-protein kinase JAK2 (Homo sapiens, UniProt O60674); assay: Inhibition of GST-tagged JAK2 (unknown origin) after 3 hrs by Caliper assay
[5] = Selectivity ratio of IC50 for JAK2 dependent EPO-induced STAT5A phosphorylation in human TF1 cells to IC50 for JAK1/JAK3 dependent IL2-induced STAT3 phosphorylation in human PBMC derived T-cells
JAK3/JAK1 = JAK3/JAK1 (Homo sapiens, UniProt P23458+P52333); assay: Inhibition of JAK1/JAK3 in human whole blood assessed as reduction in IL-2 induced IFN-gamma production after 18 hrs by ELISA; format: protein-complex assay
[6] = target: Voltage-gated inwardly rectifying potassium channel KCNH2 (Homo sapiens, UniProt Q12809); assay: Inhibition of human ERG by flux-based assay
[7] = Cmax in mouse at 10 mg/kg, po; format: ADME, organism-based; set-up: dose 10 mg/kg, route oral; settings: in vivo
[8] = Permeability from apical side to basolateral side in human Caco2 cells; format: ADME, cell-based; settings: Caco-2, read-out: permeability
[9] = Metabolic stability in mouse liver microsomes assessed as compound remaining after 10 mins; format: ADME, microsome; settings: read-out: Stability
[10] = Protein binding in mouse plasma at 10 mg/kg, po; format: ADME, organism-based; settings: read-out: PPB (converted)

Sequence of Tyrosine-protein kinase JAK2 (O60674 whole entry): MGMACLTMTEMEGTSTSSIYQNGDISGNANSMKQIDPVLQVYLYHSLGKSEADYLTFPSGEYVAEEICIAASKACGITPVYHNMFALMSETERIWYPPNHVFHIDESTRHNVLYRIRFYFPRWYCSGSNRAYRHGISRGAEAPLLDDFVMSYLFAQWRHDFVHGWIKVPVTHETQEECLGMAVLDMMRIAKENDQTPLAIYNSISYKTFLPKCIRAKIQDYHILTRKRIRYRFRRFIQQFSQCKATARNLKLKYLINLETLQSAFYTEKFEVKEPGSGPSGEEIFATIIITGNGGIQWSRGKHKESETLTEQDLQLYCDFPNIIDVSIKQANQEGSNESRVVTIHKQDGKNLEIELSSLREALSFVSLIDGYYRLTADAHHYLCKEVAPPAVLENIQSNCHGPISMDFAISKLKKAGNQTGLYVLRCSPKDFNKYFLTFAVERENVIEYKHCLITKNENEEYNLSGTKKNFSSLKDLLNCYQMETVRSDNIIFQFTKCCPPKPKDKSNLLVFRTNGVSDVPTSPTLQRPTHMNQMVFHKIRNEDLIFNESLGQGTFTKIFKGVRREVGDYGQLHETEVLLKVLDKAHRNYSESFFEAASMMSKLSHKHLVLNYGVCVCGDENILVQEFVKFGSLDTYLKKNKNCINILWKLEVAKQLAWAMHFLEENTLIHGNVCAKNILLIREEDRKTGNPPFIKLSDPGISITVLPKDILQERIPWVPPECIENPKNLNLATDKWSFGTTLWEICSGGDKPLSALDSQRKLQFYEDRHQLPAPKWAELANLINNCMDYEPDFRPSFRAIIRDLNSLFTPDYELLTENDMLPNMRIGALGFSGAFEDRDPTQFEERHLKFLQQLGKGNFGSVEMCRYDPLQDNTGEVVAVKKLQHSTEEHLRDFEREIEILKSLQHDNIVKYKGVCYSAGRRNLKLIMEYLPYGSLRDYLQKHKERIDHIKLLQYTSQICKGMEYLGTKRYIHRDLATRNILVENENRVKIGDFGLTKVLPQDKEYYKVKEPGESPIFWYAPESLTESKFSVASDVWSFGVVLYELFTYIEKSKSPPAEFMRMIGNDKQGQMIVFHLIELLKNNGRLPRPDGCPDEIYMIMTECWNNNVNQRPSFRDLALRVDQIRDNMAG
Sequence of Tyrosine-protein kinase JAK1 (P23458 whole entry): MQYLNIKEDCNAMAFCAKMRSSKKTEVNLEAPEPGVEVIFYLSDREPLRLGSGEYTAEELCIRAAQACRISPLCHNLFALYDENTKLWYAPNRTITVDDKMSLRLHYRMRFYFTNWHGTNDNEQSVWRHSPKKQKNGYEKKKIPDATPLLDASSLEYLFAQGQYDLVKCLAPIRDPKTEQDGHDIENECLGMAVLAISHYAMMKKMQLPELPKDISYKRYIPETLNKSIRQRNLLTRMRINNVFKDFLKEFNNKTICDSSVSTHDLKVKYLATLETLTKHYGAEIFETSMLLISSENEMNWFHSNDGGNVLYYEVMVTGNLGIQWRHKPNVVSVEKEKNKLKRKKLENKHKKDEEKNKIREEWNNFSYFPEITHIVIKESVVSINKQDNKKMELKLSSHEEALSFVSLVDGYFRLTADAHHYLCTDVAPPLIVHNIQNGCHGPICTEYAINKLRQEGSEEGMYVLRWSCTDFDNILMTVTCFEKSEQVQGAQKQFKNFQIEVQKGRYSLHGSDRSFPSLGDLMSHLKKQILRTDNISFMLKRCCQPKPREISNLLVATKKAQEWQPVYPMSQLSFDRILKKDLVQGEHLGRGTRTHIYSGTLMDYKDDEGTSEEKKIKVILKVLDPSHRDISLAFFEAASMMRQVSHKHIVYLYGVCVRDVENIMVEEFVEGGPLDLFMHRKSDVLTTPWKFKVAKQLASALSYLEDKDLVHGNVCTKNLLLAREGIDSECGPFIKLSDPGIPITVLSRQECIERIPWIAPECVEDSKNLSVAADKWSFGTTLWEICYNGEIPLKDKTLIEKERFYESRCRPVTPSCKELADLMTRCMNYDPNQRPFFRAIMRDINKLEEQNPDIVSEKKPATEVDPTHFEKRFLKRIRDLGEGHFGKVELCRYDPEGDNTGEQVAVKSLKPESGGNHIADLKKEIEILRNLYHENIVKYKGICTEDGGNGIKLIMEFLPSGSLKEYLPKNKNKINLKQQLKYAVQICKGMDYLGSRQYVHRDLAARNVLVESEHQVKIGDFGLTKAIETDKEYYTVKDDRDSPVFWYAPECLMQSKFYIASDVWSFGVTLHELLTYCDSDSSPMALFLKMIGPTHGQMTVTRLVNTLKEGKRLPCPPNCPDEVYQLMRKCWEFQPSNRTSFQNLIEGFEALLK
Sequence of Voltage-gated inwardly rectifying potassium channel KCNH2 (Q12809 whole entry): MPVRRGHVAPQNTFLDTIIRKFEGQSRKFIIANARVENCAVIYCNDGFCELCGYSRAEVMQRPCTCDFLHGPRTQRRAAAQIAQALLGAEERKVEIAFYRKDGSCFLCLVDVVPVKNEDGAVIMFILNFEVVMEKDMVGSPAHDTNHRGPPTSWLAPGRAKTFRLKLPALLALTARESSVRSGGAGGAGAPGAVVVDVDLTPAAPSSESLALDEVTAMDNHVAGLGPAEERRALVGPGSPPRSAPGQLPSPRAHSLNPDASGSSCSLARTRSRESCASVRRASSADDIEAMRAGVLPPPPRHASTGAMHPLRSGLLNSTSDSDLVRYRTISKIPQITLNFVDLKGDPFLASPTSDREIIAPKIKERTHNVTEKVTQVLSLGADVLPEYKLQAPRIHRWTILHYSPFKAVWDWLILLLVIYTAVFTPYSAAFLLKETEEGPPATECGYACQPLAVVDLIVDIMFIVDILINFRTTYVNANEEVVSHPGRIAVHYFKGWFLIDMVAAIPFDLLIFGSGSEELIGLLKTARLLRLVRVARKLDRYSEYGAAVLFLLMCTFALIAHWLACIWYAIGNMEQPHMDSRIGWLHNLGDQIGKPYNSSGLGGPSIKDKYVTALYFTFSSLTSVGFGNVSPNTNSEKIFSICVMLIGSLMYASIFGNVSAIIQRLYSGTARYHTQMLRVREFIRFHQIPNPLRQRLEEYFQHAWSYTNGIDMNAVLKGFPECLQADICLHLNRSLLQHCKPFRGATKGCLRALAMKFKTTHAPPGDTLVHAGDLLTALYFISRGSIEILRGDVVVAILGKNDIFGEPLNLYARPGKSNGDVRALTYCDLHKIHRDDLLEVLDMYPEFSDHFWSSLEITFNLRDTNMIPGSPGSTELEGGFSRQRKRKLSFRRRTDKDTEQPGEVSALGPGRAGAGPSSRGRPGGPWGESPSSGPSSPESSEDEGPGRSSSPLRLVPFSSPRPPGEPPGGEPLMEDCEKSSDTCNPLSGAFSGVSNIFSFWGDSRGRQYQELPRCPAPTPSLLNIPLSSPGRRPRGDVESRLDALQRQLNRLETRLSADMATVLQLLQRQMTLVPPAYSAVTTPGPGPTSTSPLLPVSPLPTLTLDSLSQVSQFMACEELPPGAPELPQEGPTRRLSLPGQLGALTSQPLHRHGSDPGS
Sequence of JAK3/JAK1 (P23458 whole entry, one chain of several): as the sequence (P23458 whole entry) above
Sequence of Non-receptor tyrosine-protein kinase TYK2 (P29597 whole entry): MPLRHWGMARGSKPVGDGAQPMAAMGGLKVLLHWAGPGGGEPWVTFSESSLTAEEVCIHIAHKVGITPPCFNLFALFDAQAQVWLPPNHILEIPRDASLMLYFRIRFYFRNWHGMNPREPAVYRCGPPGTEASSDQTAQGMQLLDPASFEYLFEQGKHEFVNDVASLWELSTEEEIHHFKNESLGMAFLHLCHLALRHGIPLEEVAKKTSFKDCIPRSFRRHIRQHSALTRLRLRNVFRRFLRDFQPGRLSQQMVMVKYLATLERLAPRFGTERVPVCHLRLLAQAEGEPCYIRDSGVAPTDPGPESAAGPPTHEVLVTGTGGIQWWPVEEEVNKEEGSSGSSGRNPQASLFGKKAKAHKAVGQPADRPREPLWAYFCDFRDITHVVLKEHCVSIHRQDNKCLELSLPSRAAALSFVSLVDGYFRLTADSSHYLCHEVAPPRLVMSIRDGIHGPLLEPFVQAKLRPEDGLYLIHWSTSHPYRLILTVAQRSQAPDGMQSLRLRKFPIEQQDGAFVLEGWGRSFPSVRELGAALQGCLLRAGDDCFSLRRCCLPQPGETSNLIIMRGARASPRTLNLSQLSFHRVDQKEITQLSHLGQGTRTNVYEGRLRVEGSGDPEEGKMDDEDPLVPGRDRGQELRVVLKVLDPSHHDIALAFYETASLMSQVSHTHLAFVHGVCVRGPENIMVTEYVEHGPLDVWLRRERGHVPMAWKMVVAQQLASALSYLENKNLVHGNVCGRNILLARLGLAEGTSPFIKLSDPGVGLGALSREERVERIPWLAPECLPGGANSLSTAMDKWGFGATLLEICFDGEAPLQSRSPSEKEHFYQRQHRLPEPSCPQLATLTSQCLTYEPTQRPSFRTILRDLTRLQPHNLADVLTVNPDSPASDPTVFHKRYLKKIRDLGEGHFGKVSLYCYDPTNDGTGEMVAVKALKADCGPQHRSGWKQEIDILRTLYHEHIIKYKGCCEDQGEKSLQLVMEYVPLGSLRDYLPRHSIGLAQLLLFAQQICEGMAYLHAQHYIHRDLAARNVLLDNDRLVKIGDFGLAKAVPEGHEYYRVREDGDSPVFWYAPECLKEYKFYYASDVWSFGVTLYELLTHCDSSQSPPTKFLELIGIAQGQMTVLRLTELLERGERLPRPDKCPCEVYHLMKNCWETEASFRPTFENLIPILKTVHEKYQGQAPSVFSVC

| SMILES | pIC50 [1] | pIC50 [2] | pIC50 [3] | pIC50 [4] | pIC50 (JAK3/JAK1) | Cmax [7] | Papp A→B [8] | remaining at 10 min [9] | fraction unbound [10] | Ratio IC50 [5] | pIC50 [6] |
| --- | --- | --- | --- | --- | --- | --- | --- | --- | --- | --- | --- |
| COc1cc(-c2cc3c(N[C@@H]4CC[C@](C)(N)C4(C)C)c(C(N)=O)cnn3c2)ccn1 | 8.64 | 7.44 | 8.55 | 7.44 | 6.46 |  |  |  |  | 86 |  |
| CCOc1ccc(-c2cc3c(N[C@@H]4CC[C@](C)(N)C4(C)C)c(C(N)=O)cnn3c2)cn1 | 8.40 | 7.42 | 8.96 | 7.52 | 6.10 |  |  |  |  | 120 | 4.77 |
| CC1(C)[C@H](Nc2c(C(N)=O)cnn3cc(-c4cncc(F)c4)cc23)CC[C@]1(C)N | 8.18 | 7.22 | 8.72 | 7.36 | 6.66 |  |  |  |  |  |  |
| CC1(C)[C@H](Nc2c(C(N)=O)cnn3cc(-c4cncnc4)cc23)CC[C@]1(C)N | 7.55 | 6.72 | 7.96 | 6.80 | 6.62 |  |  |  |  | 180 | 5.07 |
| CC(C)Oc1ccc(-c2cc3c(N[C@@H]4CC[C@](C)(N)C4(C)C)c(C(N)=O)cnn3c2)cn1 | 8.92 | 7.52 | 9.30 | 7.70 | 6.40 |  |  |  |  | 2 | 5.28 |
| Cc1cnccc1-c1cc2c(N[C@@H]3CC[C@](C)(N)C3(C)C)c(C(N)=O)cnn2c1 | 8.62 | 7.54 | 8.40 | 7.72 | 7.12 |  |  |  |  | 250 | < 4.10 |
| CC1(C)[C@H](Nc2c(C(N)=O)cnn3cc(-c4ccncc4)cc23)CC[C@]1(C)N | 8.31 | 7.36 | 8.17 | 7.10 | 7.25 | < 250 nM | < 1.5 ×10⁻⁶ cm/s | 75% | 0.31 |  |  |
| Cc1ccc(-c2cc3c(N[C@@H]4CC[C@](C)(N)C4(C)C)c(C(N)=O)cnn3c2)cn1 | 8.70 | 7.54 | 9.05 | 7.66 | 7.08 |  |  |  |  | 80 | 5.10 |
| Cc1ccccc1-c1cc2c(N[C@@H]3CC[C@](C)(N)C3(C)C)c(C(N)=O)cnn2c1 | 9.15 | 7.29 | 8.74 | 7.31 | 6.31 |  |  |  |  |  |  |
| CC1(C)[C@H](Nc2c(C(N)=O)cnn3cc(-c4cc[nH]n4)cc23)CC[C@]1(C)N | 8.77 | 7.85 | 8.80 | 7.68 | 7.09 | < 250 nM | 6.5 ×10⁻⁶ cm/s | 83% | 0.51 |  |  |
| CC1(C)[C@H](Nc2c(C(N)=O)cnn3cc(-c4ccccc4Cl)cc23)CC[C@]1(C)N | 9.10 | 7.33 | 8.89 | 7.57 | < 6.00 |  |  |  |  |  |  |
| Cc1ccncc1-c1cc2c(N[C@@H]3CC[C@](C)(N)C3(C)C)c(C(N)=O)cnn2c1 |  | 6.74 |  | 6.85 | 7.01 |  |  |  |  | 120 | 4.74 |
| COc1ccc(-c2cc3c(N[C@@H]4CC[C@](C)(N)C4(C)C)c(C(N)=O)cnn3c2)cc1 | 9.22 | 8.04 | 8.82 | 7.82 | 6.77 |  |  |  |  | 46 | 4.86 |
| COc1ccccc1-c1cc2c(N[C@@H]3CC[C@](C)(N)C3(C)C)c(C(N)=O)cnn2c1 | 9.30 | 7.68 | 8.89 | 7.70 | 6.17 |  |  |  |  | 562 | 5.12 |
| CC1(C)[C@H](Nc2c(C(N)=O)cnn3cc(-c4ccccc4F)cc23)CC[C@]1(C)N | 8.92 | 7.82 | 8.82 | 7.77 | 6.20 |  |  |  |  |  |  |

Further lines, with some results ahead:

| pIC50 [1] | pIC50 [2] | pIC50 [3] | pIC50 [4] | pIC50 (JAK3/JAK1) | Cmax [7] | Papp A→B [8] | remaining at 10 min [9] | fraction unbound [10] | SMILES | Ratio IC50 [5] | pIC50 [6] |
| --- | --- | --- | --- | --- | --- | --- | --- | --- | --- | --- | --- |
| 9.22 | 8.24 | 9.22 | 8.46 | 7.26 |  |  |  |  | Cc1cc(-c2cc3c(N[C@@H]4CC[C@](C)(N)C4(C)C)c(C(N)=O)cnn3c2)ccn1 | 8 | 4.52 |
| 9.05 | 8.00 | 9.10 | 7.82 |  |  |  |  |  | CC1(C)[C@H](Nc2c(C(N)=O)cnn3cc(-c4ccc(Cl)cc4)cc23)CC[C@]1(C)N |  |  |
| 8.92 | 7.85 | 8.68 | 7.57 | 6.38 |  |  |  |  | CC1(C)[C@H](Nc2c(C(N)=O)cnn3cc(-c4ccc(F)cc4)cc23)CC[C@]1(C)N | 230 | 4.99 |
| 9.05 | 8.10 | 9.05 | 7.96 | 6.15 |  |  |  |  | Cc1cccc(-c2cc3c(N[C@@H]4CC[C@](C)(N)C4(C)C)c(C(N)=O)cnn3c2)c1 | 50 | 5.11 |
| 8.48 | 7.23 | 8.80 | 7.42 | 6.57 |  |  |  |  | CC1(C)[C@H](Nc2c(C(N)=O)cnn3cc(-c4ccnc(F)c4)cc23)CC[C@]1(C)N |  |  |
| 8.89 | 7.70 | 9.00 | 7.77 | 6.11 |  |  |  |  | CC1(C)[C@H](Nc2c(C(N)=O)cnn3cc(-c4cccc(Cl)c4)cc23)CC[C@]1(C)N |  |  |
| 9.05 | 8.07 | 9.00 | 8.14 | 7.18 |  |  |  |  | CC1(C)[C@H](Nc2c(C(N)=O)cnn3cc(-c4ccc(C#N)cc4)cc23)CC[C@]1(C)N |  |  |
|  | 7.47 | 9.22 | 7.96 | 6.96 |  |  |  |  | CC1(C)[C@H](Nc2c(C(N)=O)cnn3cc(-c4cccnc4)cc23)CC[C@]1(C)N |  |  |
| 8.80 | 7.47 | 8.72 | 7.60 | 6.30 |  |  |  |  | CC1(C)[C@H](Nc2c(C(N)=O)cnn3cc(-c4ccccc4C#N)cc23)CC[C@]1(C)N | 240 |  |
| 8.14 | 7.26 | 8.42 | 7.33 | < 6.00 |  |  |  |  | CC1(C)[C@H](Nc2c(C(N)=O)cnn3cc(-c4cccc(C#N)c4)cc23)CC[C@]1(C)N |  |  |
| 8.92 | 7.66 | 8.80 | 7.66 | < 6.00 |  |  |  |  | CC1(C)[C@H](Nc2c(C(N)=O)cnn3cc(-c4cccc(F)c4)cc23)CC[C@]1(C)N |  | 5.12 |
| 9.10 | 8.07 | 9.15 | 7.85 | < 5.70 |  |  |  |  | Cc1ccc(-c2cc3c(N[C@@H]4CC[C@](C)(N)C4(C)C)c(C(N)=O)cnn3c2)cc1 |  |  |
| 9.00 | 7.92 | 9.40 | 7.82 | 6.70 |  |  |  |  | COc1cccc(-c2cc3c(N[C@@H]4CC[C@](C)(N)C4(C)C)c(C(N)=O)cnn3c2)c1 | 305 | 5.14 |
| 8.18 | 7.33 | 9.00 | 7.54 | 6.37 |  |  |  |  | CC1(C)[C@H](Nc2c(C(N)=O)cnn3cc(-c4ccc(C#N)nc4)cc23)CC[C@]1(C)N |  |  |
